Converted amounts (≈) assume the structure as drawn. Read-outs that look alike come from different tables or passages of the source.
Legend:
[1] = test system: A. baumannii NCTC 13423; experiment: Antibacterial activity, pre-exposure; format: cell-based, Acinetobacter baumannii; settings: for Average inhibition %, biofilms viability / Average inhibition %, planktonic cells viability / inhibition at 10 µM / inhibition at 15 µM / inhibition at 25 µM / inhibition at 50 µM: A. baumannii NCTC 13423, pre-exposure, ± SD; for inhibition at 10 µM / inhibition at 15 µM / inhibition at 25 µM / inhibition at 50 µM / MIC: Acinetobacter baumannii, NCTC13423
Experimental: (§1) The antimicrobial activity was assessed in a similar way for the initial screening and the dose–response evaluation against different bacterial strains. With the exception of the post-exposure experiment, the compounds were added to the wells along with the bacteria to test the ability of compounds to prevent bacterial growth and biofilm formation (pre-exposure). The compounds were diluted in DMSO and plated directly in 96-well plates before adding the bacterial culture, and plates were incubated for 18 h under aerobic conditions at 37 °C with shaking (220 rpm). The antibacterial activity of the compounds was assessed on planktonic cells and biofilms separately using two different measurements for each: optical density (turbidity) and resazurin reduction (viability) on planktonic cells and resazurin followed by a crystal violet staining assay (total biomass) on biofilms, as described in the following sections.
(§2) The resazurin staining was performed according to the protocol previously optimized with a few modifications.[46] Briefly, the planktonic solution was first transferred into a new 96-well plate and the OD of the planktonic solution was measured using a Varioskan LUX Multimode microplate reader (Thermo Scientific, Vantaa, Finland). Then, 10 μL of a 400 μM resazurin (R7017, Sigma-Aldrich, St. Louis, MO) diluted in phosphate-buffered saline (PBS) (Thermo Fisher Scientific, MA) was added to the wells (for a final resazurin concentration of 20 μM). The plate was incubated in the dark with shaking (220 rpm) for about 3–10 min at room temperature with S. aureus and A. baumannii (until the bacteria controls turned pink) or for 20 min at 37 °C with P. aeruginosa. Fluorescence was measured at λex = 560 nm and λem = 590 nm using the top optics of the Varioskan LUX Multimode microplate reader. The planktonic plate was then discarded. The original challenge plate containing the biofilms was washed once with PBS, and 200 μL of a 20 μM resazurin solution was added to the wells. The plate was incubated in the dark at 37 °C with shaking (220 rpm) for 30 min with S. aureus, 60 min with A. baumannii, and 90 min with P. aeruginosa. Fluorescence was measured as described for the planktonic solution. The biofilms were next treated with crystal violet staining.
(§3) After removing the resazurin solution from the plate, biofilms were fixed with ethanol 100% for 15 min at room temperature. Ethanol was then removed, and the biofilms were left to air-dry completely at RT. Crystal violet, diluted to 1:100 in deionized water from the 2.3% commercial solution (HT90132, Sigma-Aldrich, St. Louis, MO), was added to the wells and, after a 5 min incubation with the dye, the biofilms were washed twice with deionized water and left to air-dry for about 10 min. The dye was solubilized in ethanol 100% for 1 h, and absorbance was measured at 595 nm using a Multiskan Sky microplate spectrophotometer (Thermo Scientific, Vantaa, Finland).

[2] = test system: P. aeruginosa ATCC 9027; experiment: Antibacterial activity, pre-exposure; format: cell-based, Pseudomonas aeruginosa; settings: for Average inhibition %, biofilms viability / Average inhibition %, planktonic cells viability / inhibition at 50 µM / inhibition at 100 µM / inhibition at 150 µM / inhibition at 200 µM: P. aeruginosa ATCC 9027, pre-exposure, ± SD; for MIC / inhibition at 50 µM / inhibition at 100 µM / inhibition at 150 µM / inhibition at 200 µM: Pseudomonas aeruginosa; for inhibition at 50 µM / inhibition at 100 µM / inhibition at 150 µM / inhibition at 200 µM: ATCC9027
Experimental: as §1, §2, §3

[3] = 50 µM, read-out: Average inhibition %, biofilms biomass
[4] = 50 µM, read-out: Average inhibition %, planktonic cells turbidity

SMILES: CCCCCCCCc1ccc(C(O)CC(N)(CO)CO)cc1 (stereo not drawn) [Compound 54, 3-Amino-3-(hydroxymethyl)-1-(4-octylphenyl)butane-1,4-diol]
- Average inhibition %, biofilms viability ([1]; 10 µM): 0 ± 0%
- Average inhibition %, planktonic cells viability ([1]; 10 µM): 4.7 ± 2.4%
- Average inhibition %, biofilms viability ([1]; 15 µM): 1.2 ± 2.1%
- Average inhibition %, planktonic cells viability ([1]; 15 µM): 6.4 ± 4.2%
- Average inhibition %, biofilms viability ([1]; 25 µM): 6.1 ± 6.8%
- Average inhibition %, planktonic cells viability ([1]; 25 µM): 3.3 ± 4.4%
- Average inhibition %, biofilms viability ([1]; 50 µM): 100.2 ± 0.8%
- Average inhibition %, planktonic cells viability ([1]; 50 µM): 99.4 ± 0.2%
- inhibition at 10 µM ([1]; 10 µM, read-out: Average inhibition %, biofilms biomass): 2.3 ± 4.1%
- inhibition at 10 µM ([1]; 10 µM, read-out: Average inhibition %, planktonic cells turbidity): 0%
- inhibition at 15 µM ([1]; 15 µM, read-out: Average inhibition %, biofilms biomass): 1.5 ± 1.3%
- inhibition at 15 µM ([1]; 15 µM, read-out: Average inhibition %, planktonic cells turbidity): 0%
- inhibition at 25 µM ([1]; 25 µM, read-out: Average inhibition %, biofilms biomass): 6.1 ± 8.1%
- inhibition at 25 µM ([1]; 25 µM, read-out: Average inhibition %, planktonic cells turbidity): 0%
- inhibition at 50 µM [1, 3]: 81.2 ± 8.8%
- inhibition at 50 µM [1, 4]: 99 ± 1%
- MIC ([1]; pre-exposure, Inactive = no activity up to 50 μM, > = some inhibition but no MIC reached, read-out: MIC A. baumannii NCTC 13423): 50 µM (≈ 16.2 µg/mL)
- MIC ([1]; supplementary molecular formula strings sheet, read-out: MIC (A. baumannii)): 50 µM (≈ 16.2 µg/mL)
- Average inhibition %, biofilms viability ([2]; 50 µM): 22.2 ± 26.9%
- Average inhibition %, planktonic cells viability ([2]; 50 µM): 74 ± 11.2%
- Average inhibition %, biofilms viability ([2]; 100 µM): 98.9 ± 1.5%
- Average inhibition %, planktonic cells viability ([2]; 100 µM): 99.6 ± 0%
- Average inhibition %, biofilms viability ([2]; 150 µM): 97.5 ± 3.9%
- Average inhibition %, planktonic cells viability ([2]; 150 µM): 99.2 ± 0.8%
- Average inhibition %, biofilms viability ([2]; 200 µM): 99.7 ± 0.1%
- Average inhibition %, planktonic cells viability ([2]; 200 µM): 99.7 ± 0.1%
- MIC ([2]; ATCC9027, pre-exposure, Inactive = no activity up to 200 μM, > = some inhibition but no MIC reached, read-out: MIC P. aeruginosa ATCC 9027): 50 to 100 µM (≈ 16.2 to 32.3 µg/mL)
- MIC ([2]; ATCC9027, supplementary molecular formula strings sheet, read-out: MIC (P. aeruginosa)): 100 µM (≈ 32.3 µg/mL)
- inhibition at 50 µM [2, 3]: 46.4 ± 22%
- inhibition at 50 µM [2, 4]: 76.9 ± 11.6%
- inhibition at 100 µM ([2]; 100 µM, read-out: Average inhibition %, biofilms biomass): 96.7 ± 1.1%
- inhibition at 100 µM ([2]; 100 µM, read-out: Average inhibition %, planktonic cells turbidity): 98.2 ± 0.5%
- inhibition at 150 µM ([2]; 150 µM, read-out: Average inhibition %, biofilms biomass): 90.9 ± 7.2%
- inhibition at 150 µM ([2]; 150 µM, read-out: Average inhibition %, planktonic cells turbidity): 94.4 ± 1.4%
- inhibition at 200 µM ([2]; 200 µM, read-out: Average inhibition %, biofilms biomass): 94.1 ± 1.7%
- inhibition at 200 µM ([2]; 200 µM, read-out: Average inhibition %, planktonic cells turbidity): 94.1 ± 1.3%
